Measurements as given in patent US20030092010A1, “Molecular switches” (priority 1999, published 2003).
*1 amine or outer side, *2 acyl side, *3 side chain or, on linkers, in order; H or OH if unused. Where a SMILES comes first, the peptide text is derived from it. Bridges are numbered along the chain shown (N, C = ends). Roman numbers before positions name the chains, in order. [ ]: non-standard residue; d: D form. Actinocin(9to1) = Cc1c2oc3c(C)ccc(C(=O)[*:1])c3nc-2c(C(=O)[*:2])c(N)c1=O; NMeV = CN[C@H](C(=O)O)C(C)C; Sar = CNCC(=O)O

Key:
[1] = system: DNA target AGCTTGGCG; assay: dissociation of zinc finger phage from DNA target by actinomycin D; assay type: binding
Procedure: (§1) This example describes phage that bound DNA targets with higher affinity in the absence of ligand. These phage were isolated using either: (a) the same method as in example 1.1, or (b) by selection in the absence of small molecule and phage elution from DNA using a small molecule.
(§2) Phage selection is over 4 rounds. Binding reactions contain […] biotinylated DNA site immobilised on 50 mg streptavidin coated beads (Dynal) and a 1 ml solution of ;zinc finger phage library (as described in 1.1) Reactions were incubated for 1 h on a rolling platform. After this time, beads were washed 20 times as described in 1.1 and finally phage were eluted from the beads over 5 minutes using a solution containing ligand (10 μM Distamycin A, or 1 μM Actinomycin D in PBS/Zn).
The actinomycin D sensitive clone was selected with the DNA target AGCTTGGCG and its helices were sequenced as: […]

[2] = system: DNA sequence AGCTTGGCG; assay: phage ELISA: zinc finger phage binding to DNA target in presence and absence of actinomycin D; conditions: FIG. 2; phage AD clone 1 and 6
Procedure: Essentially the method was the same as used in the previous section using four rounds of a preselection step followed by a selection step, washing and elution. Differences in the method are described. The preselection step comprised of 7.5 μmol of biotinylated DNA target site immobilised on 18.75 μl streptavidin coated beads (Dynal) in a 100 μl mixture containing 4 μl phage library 96 μl PBS, 2% Marvel. 1% Tween-20. 50 μM ZnCl2 for 1 hour at room temperature with constant mixing. Phage selections were made in streptavidin coated tubes with the phage supernatant, 5 nM biotinylated target DNA, 10 μM actinomycin D in the presence of 1 μg poly [d(I-C)] competitor. The selections were incubated for 1 hour at room temperature. The bound phage were washed and eluted as described above.
ELISA was performed as described above but using 5 nM biotinylated target DNA. 0.25 μg poly[d(I−C)] competitor in the assay and 10 μM actinomycin D where appropriate. Phage were sequenced using Big Dye Terminator Cycle Sequencing Kit (Perkin Elmer Biosystems) and automated sequencing.

[3] = system: CAT reporter gene downstream of the sequence AAAAAAGGCG; assay: transient transfection CAT reporter assay with zinc finger-HSV VP16 fusion; assay type: cell-based; conditions: in the presence of Distamycin A; zinc finger-HSV VP16 fusion cotransfected
From the text: A reporter system is produced which produces a reporter signal conditionally depending on the binding of the zinc finger DNA binding molecule to its target DNA sequence.
A transient transfection system using zinc finger transcription factors is produced as described in Choo, Y., et al., (1997) J. Mol. Biol 273:525-532. This system comprises an expression plasmid which produces a phage-selected zinc finger fused to the activation domain of HSV VP 16. and a reporter plasmid which contains the recognition sequence of the zinc finger upstream of a CAT reporter gene.
Thus, a zinc finger which recognises the DNA sequence AAAAAAGGCG is selected by phage display as described in Example 1. By the method of the preceding examples said zinc finger is used to construct transcription factors as described above.
A transient expression experiment is conducted, wherein the CAT reporter gene on the reporter plasmid is placed downstream of the sequence AAAAAAGGCG. The reporter plasmid is cotransfected with a plasmid vector expressing the zinc finger-HSV fision under the control of a constitutive promoter. No activation of CAT gene expression is observed.

[4] = system: DNA target AAAAAGCGGAAAAA; assay: dissociation of zinc finger phage from DNA target by distamycin A; assay type: binding
Procedure: as §1, §2
Some phage isolated by either of the above methods (a or b) bound DNA in the absence of ligand but could be displaced by concentrations of distamycin A at 10 μM and actinomycin D at 1 μM. The distamycin sensitive clone was selected using the DNA target AAAAAGCGGAAAAA and its helices were sequenced as: […]

[5] = system: DNA sequence AAAAAGGCG; assay: phage ELISA: zinc finger phage binding to DNA target site in presence and absence of distamycin A; conditions: FIG. 1; phage clone 3 (3/2F) and clone 4 (4/EF)
[6] = phage bound DNA in the absence of ligand

Row | Structure (SMILES) | dissociation / displacement of phage from DNA by actinomycin D ([1]; FIG. 6, actinomycin D sensitive clone) | actinomycin D concentration at which DNA-bound phage could be displaced [1, 6] [µM] | effect of Actinomycin D concentration on binding of phage to the DNA sequence AGCTTGGCG [2] | CAT reporter gene expression [3] | dissociation / displacement of phage from DNA by distamycin A ([4]; FIG. 6, distamycin sensitive clone) | distamycin A concentration at which DNA-bound phage could be displaced [4, 6] [µM] | effect of Distamycin A concentration on binding of phage to the DNA sequence AAAAAGGCG [5]
1 | Cc1c2oc3c(C)ccc(C(=O)N[C@@H]4C(=O)N[C@H](C(C)C)C(=O)N5CCC[C@H]5C(=O)N(C)CC(=O)N(C)[C@@H](C(C)C)C(=O)O[C@@H]4C)c3nc-2c(C(=O)N[C@@H]2C(=O)N[C@H](C(C)C)C(=O)N3CCC[C@H]3C(=O)N(C)CC(=O)N(C)[C@@H](C(C)C)C(=O)O[C@@H]2C)c(N)c1=O [Actinomycin D] (I: T[dV]P[Sar][NMeV] / II: T[dV]P[Sar][NMeV]; ester I:1-I:C, II:1-II:C; linker I:N-II:N via Actinocin(9to1)) | dissociated from the DNA | 1 | causes phage binding to nucleic acid | – | – | – | –
2 | Cn1cc(NC(=O)c2cc(NC(=O)c3cc(NC=O)cn3C)cn2C)cc1C(=O)NCCC(=N)N [Distamycin A] | – | – | – | CAT expression is observed | dissociated from the DNA | 10 | causes phage binding to nucleic acid
